Assay: mn = molality of the nth substance listed, in mol/kg
Conditions: 100 kPa, Liquid; for viscosity: Capillary tube (Ostwald / Ubbelohde) method; for speed of sound: Frequency=3 MHz, Sing-around technique in a fixed-path interferometer; for mass density: Vibrating tube method

C[C@H](CCC(=O)[O-])[C@H]1CC[C@H]2[C@@H]3CC[C@@H]4C[C@H](O)CC[C@]4(C)[C@H]3C[C@H](O)[C@]12C.[Na+] [sodium deoxycholate] + O
Conditions | mass density, 293.15 K [kg/m3] | mass density, 298.15 K [kg/m3] | mass density, 303.15 K [kg/m3] | speed of sound, 293.15 K [m/s] | speed of sound, 298.15 K [m/s] | speed of sound, 303.15 K [m/s] | viscosity, 293.15 K [mPa·s] | viscosity, 298.15 K [mPa·s] | viscosity, 303.15 K [mPa·s]
m1 = 0.001 | 998.465 | 997.29 | 995.88 | 1483.4 | 1497.2 | 1509.6 | 1.003 | 0.8914 | 0.7987
m1 = 0.002 | 998.579 | 997.395 | 995.983 | 1483.8 | 1497.5 | 1509.9 | 1.004 | 0.8926 | 0.7999
m1 = 0.003 | 998.669 | 997.475 | 996.059 | 1484.2 | 1497.8 | 1510 | 1.006 | 0.8937 | 0.801
m1 = 0.004 | 998.749 | 997.555 | 996.137 | 1484.5 | 1497.9 | 1510.2 | 1.009 | 0.8967 | 0.8039
m1 = 0.005 | 998.815 | 997.635 | 996.215 | 1484.6 | 1498.1 | 1510.5 | 1.014 | 0.9021 | 0.8092
m1 = 0.006 | 998.905 | 997.715 | 996.289 | 1485 | 1498.4 | 1510.7 | 1.027 | 0.915 | 0.822
m1 = 0.007 | 998.995 | 997.805 | 996.377 | 1485.2 | 1498.7 | 1511 | 1.036 | 0.924 | 0.8309
m1 = 0.009 | 999.185 | 997.996 | 996.557 | 1485.5 | 1499.2 | 1511.3 | 1.045 | 0.9323 | 0.8391
m1 = 0.011 | 999.39 | 998.185 | 996.745 | 1485.8 | 1499.5 | 1511.8 | 1.049 | 0.9368 | 0.8434
m1 = 0.013 | 999.585 | 998.388 | 996.921 | 1486.2 | 1499.9 | 1512 | 1.053 | 0.941 | 0.8476
m1 = 0.015 | 999.795 | 998.572 | 997.109 | 1486.5 | 1500.2 | 1512.3 | 1.062 | 0.9489 | 0.8554
m1 = 0.017 | 999.993 | 998.772 | 997.29 | 1486.8 | 1500.6 | 1512.7 | 1.069 | 0.956 | 0.8624

— the NIST ThermoML archive (doi:10.1016/j.tca.2015.02.014)
